# Molecular target: human dUTPase (Homo sapiens (Human), UniProt P33316)
# Assay: Human dUTPase inhibitory effect: production of [5-3H]dUMP from [5-3H]dUTP, measured by HPLC with flow scintillation
# Type: biochemical
# Settings: [5-3H]dUMP production from [5-3H]dUTP, 37° C., 15 minutes
# Method: The inhibitory activity of the compound of the present invention against human dUTPase was determined by measuring the production of [5-^3H]deoxyuridine monophosphate (hereinafter, referred to as [5-^3H]dUMP) from [5-^3H]deoxyuridine triphosphate (hereinafter, referred to as [5-^3H]dUTP) according to a method shown below.
# Specifically, 0.2 mL in total of a solution containing 0.02 mL of 1 μM dUTP (including 588 Bq/mL [5-3H]dUTP), 0.05 mL of a 0.2 M Tris buffer solution (pH 7.4), 0.05 mL of 16 mM magnesium chloride, 0.02 mL of 20 mM 2-mercaptoethanol, 0.02 mL of a 1% aqueous solution of fetal bovine serum-derived albumin, 0.02 mL of varying concentrations of test compound solutions or pure water as a control, and 0.02 mL of a solution of human dUTPase (expressed using E. coli and purified) was reacted at 37° C. for 15 minutes. Immediately after the reaction, the solution was heated at 100° C. for 1 minute to terminate the reaction, followed by centrifugation at 15000 rpm for 2 minutes. An aliquot (150 μL) of the supernatant thus obtained by centrifugation was analyzed using an Atlantis dC18 column (manufactured by Waters Corp., 4.6×250 mm) and a high-performance liquid chromatograph (manufactured by Shimadzu Corp., Prominence). Elution was performed at a flow rate of 0.8 mL/min for 30 minutes by a concentration gradient from a 4:6 mixed solution of a mobile phase A (10 mM potassium dihydrogen phosphate (pH 6.7), 10 mM tetrabutylammonium, and 0.25% methanol) and a mobile phase B (50 mM potassium dihydrogen phosphate (pH 6.7), 5.6 mM tetrabutylammonium, and 30% methanol) to the mobile phase B. The eluate was mixed with a scintillator (manufactured by PerkinElmer Co., Ltd., Ultima-Flo AP) at a 1:2 ratio, and the radioactivity of the produced [5-^3H]dUMP (RT 10.2 min) was measured using Radiomatic Flow Scintillation Analyzer (manufactured by PerkinElmer Co., Ltd., 525TR).
# The inhibitory activity of the test compound was determined according to the formula shown below.
# Chain of human dUTPase (P33316 94-252): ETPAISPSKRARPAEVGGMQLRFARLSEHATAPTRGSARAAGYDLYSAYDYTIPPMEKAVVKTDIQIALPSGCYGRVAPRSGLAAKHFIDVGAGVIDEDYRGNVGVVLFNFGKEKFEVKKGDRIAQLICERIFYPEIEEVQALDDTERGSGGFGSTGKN
row,IC50 [nM],SMILES
1,1180,"C#CCOc1cccc([C@@H](C)NS(=O)(=O)CCCOCn2ccc(=O)[nH]c2=O)c1 [Example 57, (R)-3-((2,4-dioxo-3,4-dihydropyrimidin-1(2H)-yl)methoxy)-N-(1-(3-(prop-2-ynyloxy)phenyl)ethyl)propane-1-sulfonamide]"
2,370,"C#C[C@H](C)Oc1cccc([C@@H](C)NS(=O)(=O)CCCOCn2ccc(=O)[nH]c2=O)c1 [Example 62, N—((R)-1-(3-((S)-but-3-yn-2-yloxy)phenyl)ethyl)-3-((2,4-dioxo-3,4-dihydropyrimidin-1(2H)-yl)methoxy)propane-1-sulfonamide]"
3,470,"C#C[C@@H](C)Oc1cccc([C@@H](C)NS(=O)(=O)CCCOCn2ccc(=O)[nH]c2=O)c1 [Example 63, N—((R)-1-(3-((R)-but-3-yn-2-yloxy)phenyl)ethyl)-3-((2,4-dioxo-3,4-dihydropyrimidin-1(2H)-yl)methoxy)propane-1-sulfonamide]"
4,430,"CC[C@H](C)Oc1cccc([C@@H](C)NS(=O)(=O)CCCOCn2ccc(=O)[nH]c2=O)c1 [Example 67, N—((R)-1-(3-((s)-1-methylpropoxy)phenyl)ethyl)-3-((2,4-dioxo-3,4-dihydropyrimidin-1(2H)-yl)methoxy)propane-1-sulfonamide]"
5,740,"C=CCOc1cccc([C@@H](C)NS(=O)(=O)CCCOCn2ccc(=O)[nH]c2=O)c1 [Example 69, (R)—N-(1-(3-(allyloxy)phenyl)ethyl)-3-((2,4-dioxo-3,4-dihydropyrimidin-1(2H)-yl)methoxy)propane-1-sulfonamide]"
6,2100,"O=c1ccn(COCCCS(=O)(=O)NC(c2ccccc2)c2ccccc2)c(=O)[nH]1 [Example 76, N-benzhydryl-3-((2,4-dioxo-3,4-dihydropyrimidin-1(2H)-yl)methoxy)propane-1-sulfonamide]"
7,5690,"Cc1ccccc1C(NS(=O)(=O)CCCOCn1ccc(=O)[nH]c1=O)c1ccccc1 (stereo not shown) [Example 77, 3-((2,4-dioxo-3,4-dihydropyrimidin-1(2H)-yl)methoxy)-N-(phenyl(o-tolyl)methyl)propane-1-sulfonamide]"
8,2580,"O=c1ccn(COCCCS(=O)(=O)NC(c2ccc(F)cc2)c2ccc(F)cc2)c(=O)[nH]1 [Example 78, N-(bis(4-fluorophenyl)methyl)-3-((2,4-dioxo-3,4-dihydropyrimidin-1(2H)-yl)methoxy)propane-1-sulfonamide]"
9,1650,"O=c1ccn(COCCCS(=O)(=O)N2CCC[C@@H]2C(c2ccccc2)c2ccccc2)c(=O)[nH]1 [Example 79, (R)-1-((3-(2-benzhydrylpyrrolidin-1-ylsulfonyl)propoxy)methyl)pyrimidine-2,4(1H, 3H)-dione]"
10,1300,"CC(C)C[C@@H](NS(=O)(=O)CCCOCn1ccc(=O)[nH]c1=O)C(O)(c1ccccc1)c1ccccc1 [Example 80, (R)-3-((2,4-dioxo-3,4-dihydropyrimidin-1(2H)-yl)methoxy)-N-(1-hydroxy-4-methyl-1,1-diphenylpentan-2-yl)propane-1-sulfonamide]"
11,9440,"O=c1ccn(COCCCS(=O)(=O)NC2(c3ccccc3)CCCC2)c(=O)[nH]1 [Example 81, 3-((2,4-dioxo-3,4-dihydropyrimidin-1(2H)-yl)methoxy)-N-(1-phenylcyclopentyl)propane-1-sulfonamide]"
12,4780,"CC[C@@H](NS(=O)(=O)CCCOCn1ccc(=O)[nH]c1=O)c1ccccc1 [Example 83, (R)-3-((2,4-dioxo-3,4-dihydropyrimidin-1(2H)-yl)methoxy)-N-(1-phenylpropyl)propane-1-sulfonamide]"
13,7130,"C[C@@H](NS(=O)(=O)CCCOCn1ccc(=O)[nH]c1=O)c1cccc(F)c1 [Example 87, (R)-3-((2,4-dioxo-3,4-dihydropyrimidin-1(2H)-yl)methoxy)-N-(1-(3-fluorophenyl)ethyl)propane-1-sulfonamide]"
14,4630,"O=c1ccn(COCCCS(=O)(=O)NC(c2ccccc2)c2cccc(F)c2)c(=O)[nH]1 (stereo not shown) [Example 93, 3-((2,4-dioxo-3,4-dihydropyrimidin-1(2H)-yl)methoxy)-N-((3-fluorophenyl)(phenyl)methyl)propane-1-sulfonamide]"
15,4620,"O=c1ccn(Cc2ccc(S(=O)(=O)NC(c3ccccc3)c3ccccc3)cc2)c(=O)[nH]1 [Example 96, N-benzhydryl-4-((2,4-dioxo-3,4-dihydropyrimidin-1(2H)-yl)methyl)benzenesulfonamide]"

# The remaining lines, values behind:
row,SMILES,IC50 [nM]
1,"C[C@@H](NS(=O)(=O)CCCOCn1ccc(=O)[nH]c1=O)c1cccc(OC(F)(F)C(F)(F)F)c1 [Example 55, (R)-3-((2,4-dioxo-3,4-dihydropyrimidin-1(2H)-yl)methoxy)-N-(1-(3-(perfluoroethoxy)phenyl)ethyl)propane-1-sulfonamide]",410
2,"C[C@@H](NS(=O)(=O)CCCOCn1ccc(=O)[nH]c1=O)c1cccc(OC(CF)CF)c1 [Example 56, (R)—N-(1-(3-(1,3-difluoropropan-2-yloxy)phenyl)ethyl)-3-((2,4-dioxo-3,4-dihydropyrimidin-1(2H)-yl)methoxy)propane-1-sulfonamide]",850
3,"CC(C)COc1cccc([C@@H](C)NS(=O)(=O)CCCOCn2ccc(=O)[nH]c2=O)c1 [Example 58, (R)-3-((2,4-dioxo-3,4-dihydropyrimidin-1(2H)-yl)methoxy)-N-(1-(3-isobutoxyphenyl)ethyl)propane-1-sulfonamide]",310
4,"CC[C@H](C)COc1cccc([C@@H](C)NS(=O)(=O)CCCOCn2ccc(=O)[nH]c2=O)c1 [Example 59, 3-((2,4-dioxo-3,4-dihydropyrimidin-1(2H)-yl)methoxy)-N—((R)-1-(3-((S)-2-methylbutoxy)phenyl)ethyl)propane-1-sulfonamide]",720
5,"C[C@@H](NS(=O)(=O)CCCOCn1ccc(=O)[nH]c1=O)c1cccc(OCC2(C)CC2)c1 [Example 60, (R)-3-((2,4-dioxo-3,4-dihydropyrimidin-1(2H)-yl)methoxy)-N-(1-(3-((1-methylcyclopropyl)methoxy)phenyl)ethyl)propane-1-sulfonamide]",490
6,"C[C@@H](NS(=O)(=O)CCCOCn1ccc(=O)[nH]c1=O)c1cccc(OCC(F)F)c1 [Example 61, (R)—N-(1-(3-(2,2-difluoroethoxy)phenyl)ethyl)-3-((2,4-dioxo-3,4-dihydropyrimidin-1(2H)-yl)methoxy)propane-1-sulfonamide]",140
7,"C[C@@H](NS(=O)(=O)CCCOCn1ccc(=O)[nH]c1=O)c1cccc(OCC2CCCC2)c1 [Example 65, (R)—N-(1-(3-(cyclopentylmethoxy)phenyl)ethyl)-3-((2,4-dioxo-3,4-dihydropyrimidin-1(2H)-yl)methoxy)propane-1-sulfonamide]",1000
8,"CC[C@@H](C)Oc1cccc([C@@H](C)NS(=O)(=O)CCCOCn2ccc(=O)[nH]c2=O)c1 [Example 66, N—((R)-1-(3-((R)-1-methylpropoxy)phenyl)ethyl)-3-((2,4-dioxo-3,4-dihydropyrimidin-1(2H)-yl)methoxy)propane-1-sulfonamide]",460
9,"C[C@@H](NS(=O)(=O)CCCOCn1ccc(=O)[nH]c1=O)c1ccc(F)c(OCC(F)F)c1 [Example 68, (R)—N-(1-(3-(2,2-difluoroethoxy)-4-fluorophenyl)ethyl)-3-((2,4-dioxo-3,4-dihydropyrimidin-1(2H)-yl)methoxy)propane-1-sulfonamide]",110
10,"CCC[C@H](C)Oc1cccc([C@@H](C)NS(=O)(=O)CCCOCn2ccc(=O)[nH]c2=O)c1 [Example 70, 3-((2,4-dioxo-3,4-dihydropyrimidin-1(2H)-yl)methoxy)-N—((R)-1-(3-((S)-pentan-2-yloxy)phenyl)ethyl)propane-1-sulfonamide]",760
11,"CCC[C@@H](C)Oc1cccc([C@@H](C)NS(=O)(=O)CCCOCn2ccc(=O)[nH]c2=O)c1 [Example 71, 3-((2,4-dioxo-3,4-dihydropyrimidin-1(2H)-yl)methoxy)-N—((R)-1-(3-((R)-pentan-2-yloxy)phenyl)ethyl)propane-1-sulfonamide]",930
12,"C[C@@H](NS(=O)(=O)CCCOCn1ccc(=O)[nH]c1=O)c1cccc(OCC(F)(F)C(F)(F)F)c1 [Example 72, (R)-3-((2,4-dioxo-3,4-dihydropyrimidin-1(2H)-yl)methoxy)-N-(1-(3-(2,2,3,3,3-pentafluoropropoxy)phenyl)ethyl)propane-1-sulfonamide]",660
13,"C[C@@H](NS(=O)(=O)CCCOCn1ccc(=O)[nH]c1=O)c1cccc(OCCC2CC2)c1 [Example 73, (R)—N-(1-(3-(2-cyclopropylethoxy)phenyl)ethyl)-3-((2,4-dioxo-3,4-dihydropyrimidin-1(2H)-yl)methoxy)propane-1-sulfonamide]",510
